Reference: patent publication US7262164B2, “Polymeric thiol-linked prodrugs employing benzyl elimination systems” (Enzon, Inc., priority 2001, dated 2007)
Marks after values point to notes of the source that are not given here.

What was measured:
[1] = tested on: P388/0 cell lines; test: Cytotoxicity assay, Alamar Blue cell growth; assay type: cell-based; conditions: Mus musculus, 72 h, P388/0 cells, 3 days
Procedure: Cell Lines and Cytotoxicity Assays. Studies using P388/0 cell lines for IC50 (drug concentration inhibiting growth of cells by 50%) were maintained and conducted as previously reported. Briefly, for IC50 determination, cells were seeded into the microwell plates at a density of 2×10^3 cells per 50 μL per well. Plates were incubated at 37° C. in a humidified incubator with 5% CO2 for 3 days. Cell growth was measured by the addition of 10 μL/well of Alamar Blue (Alamar Biosciences, Inc., Sacramento, Calif.) and the plates were incubated a further 4 hours at 37° C. The IC50values for each compound were determined from absorbance versus dilution factor plots. All cell cultures for animal implantation were maintained at 37° C. in a humidified atmosphere of 5% CO2/[…] and subcultured once a week. All cell lines were periodically tested for Mycoplasma and were Mycoplasma free.

[2] = tested on: Lung M109 syngeneic solid tumors; test: In vivo M109 tumor model; set-up: species or system Balb/C mice; conditions: i.v. day 1 & 4; for T/C (%) at Day 18: control median tumor volume approx. 1000 mm^3; for T/C (%) at Day 25: control median tumor volume approx. 2000 mm^3
Procedure: M109 cells (NCI), derived from donor mice, were grown and expanded in tissue culture for in vivo implantation. Cells were grown in EMEM with 10% FBS and 1% streptomycin/penicillin media, kept in an incubator at 37° C. with 5% CO2and split twice a week. Cells were trypsinized, harvested, washed, counted and prepared in PBS for transport to the vivarium. Cells were kept on ice until implantation was conducted with minimum lag time. A cell suspension of approximately 5×10^6 cells/mL was used. Balb/C mice were implanted subcutaneous with 100 μL of the above cell suspension (Day 0). Treatments were administered intravenously on Day 1 and Day 4. Compound doses were based on the content of 6-MP. Body weight and tumor volume were then measured twice weekly until the group's median tumor volume exceeded 2000 mm^3. The tumor volume for each mouse was determined by measuring two dimensions with calipers and calculated using the formula: tumor volume=(length×width^2)/2. Drug effects were determined by comparing tumor growth in treated versus control (no vehicle) mice. Two types of endpoints were used as the basis for comparison: (a) the percent difference in tumor volume (% T/C), measured when the control group's median tumor volume reached approximately 800-1100 mm^3 (exponential growth phase) and (b) again when the control group's median tumor volume was approximately 2000 mm^3.

[3] = Solubility in water; assay type: physicochemical
[4] = tested on: murine leukemia cell line L1210/O; test: In vivo L1210 tumor model (ascites); set-up: species or system mouse; conditions: Q2d×6, IP, intralipid
Excerpt: 6-MP and pro-drug forms of 6-MP were screened for in vivo activity against the murine leukemia cell line L1210/O (mouse, lymphocytic leukemia). The cell line was obtained from Southern Research Institute (Birmingham, Ala.) and grown in DMEM supplemented with 10% horse serum. L 1210/O cells were subcultured two times per week and log phase cultures (viability≧95%) were used for all in vivo experiments. Female CD2F1 mice (Taconic Farms, Germantown, N.Y.) at 7-8 weeks of age were used for study. Following one week of acclimation, mice were implanted i.p. with L1210/0 cells (5×10^5 cells/mouse) at designated day 0. The mice were randomly assigned to experimental groups (8-10/group). The groups included control, 6-MP and PEG-6-MP conjugates. 6-MP was solubilized in 3% DMSO and suspended in intralipid and administered Q2d×6, IP. PEG-6-MP was dissolved in phosphate buffer (pH 5.8) and administered Q4d×3, IV. Control groups received vehicle (intralipid or phosphate buffer). The mice were monitored for up to 40 days, and the treatment was evaluated as percentage of increase in life span (ILS).

[5] = total dose 200 mg/kg (6-MP content)

SMILES	IC50 [1] [nM]	T/C (%) at Day 18 ([2]; total dose 40 mg/kg) [%]	T/C (%) at Day 25 ([2]; total dose 40 mg/kg) [%]	solubility [3] [µg/mL]	Anti-tumor activity, inhibiting the growth of M109 solid tumors (in words) ([2]; Balb/C mice)	T/C (%) at Day 18 [2, 5] [%]	T/C (%) at Day 25 [2, 5] [%]	% ILS (percent increase in life span) ([4]; total dose 90 mg/kg) [%]	% ILS (percent increase in life span) ([4]; total dose 240 mg/kg)
Nc1nc2nc[nH]c2c(=S)[nH]1 [6-TG (2), 6-thioguanine]	360	82	78						
Sc1ncnc2nc[nH]c12 [6-MP (1), 6-mercaptopurine]				< 100	ineffective	144	184	31.8	52.5* %
